Broadly, the IC50 is the concentration that inhibits the measured activity by half.

The target of the test is T1, rabbit muscle glycogen phosphorylase (RMGP) (Oryctolagus cuniculus, UniProt P00489).
T1 construct: gene PYGM
T1 sequence (P00489 2-843): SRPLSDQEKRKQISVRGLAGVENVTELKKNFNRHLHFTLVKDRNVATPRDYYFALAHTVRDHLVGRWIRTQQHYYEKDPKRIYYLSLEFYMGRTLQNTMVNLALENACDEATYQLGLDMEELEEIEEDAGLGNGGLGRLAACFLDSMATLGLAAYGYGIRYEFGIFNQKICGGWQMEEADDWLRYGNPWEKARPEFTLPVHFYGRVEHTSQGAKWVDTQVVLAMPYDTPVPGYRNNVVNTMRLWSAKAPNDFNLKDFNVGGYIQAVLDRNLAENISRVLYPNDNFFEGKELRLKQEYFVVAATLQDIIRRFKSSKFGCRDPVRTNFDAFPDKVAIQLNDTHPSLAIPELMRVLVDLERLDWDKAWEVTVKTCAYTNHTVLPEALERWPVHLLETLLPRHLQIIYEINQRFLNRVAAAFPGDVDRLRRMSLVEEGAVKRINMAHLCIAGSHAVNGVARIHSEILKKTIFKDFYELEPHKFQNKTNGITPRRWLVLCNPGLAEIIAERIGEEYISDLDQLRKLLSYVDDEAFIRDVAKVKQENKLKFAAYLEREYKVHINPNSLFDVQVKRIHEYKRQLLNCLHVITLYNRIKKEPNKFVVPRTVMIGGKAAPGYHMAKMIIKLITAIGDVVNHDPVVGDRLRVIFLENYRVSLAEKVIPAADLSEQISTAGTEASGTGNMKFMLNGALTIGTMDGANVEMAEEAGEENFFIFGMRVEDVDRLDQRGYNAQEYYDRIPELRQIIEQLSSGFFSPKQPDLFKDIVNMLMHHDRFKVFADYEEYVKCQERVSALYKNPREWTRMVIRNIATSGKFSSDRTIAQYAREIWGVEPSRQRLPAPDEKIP
As to the kind of experiment: enzyme kinetics in the direction of glycogen synthesis, RMGP isolated from rabbit skeletal muscle, […] AMP. It is filed as biochemical.
`O=c1[nH]c(Nc2ccc3[nH]c4ccccc4c(=O)c3c2)ncc1[C@@H]1O[C@H](CO)[C@@H](O)[C@H](O)[C@H]1O` [compound 6, 2-[(Acridin-9(10H)-on-2-yl)amino]-5-(β-D-glucopyranosyl)pyrimidin-4(3H)-one] gave an IC50 of 5.4 ± 0.5 µM.

`Nc1ncc([C@@H]2O[C@H](CO)[C@@H](O)[C@H](O)[C@H]2O)c(=O)[nH]1` [compound 5, 2-Amino-5-(β-D-glucopyranosyl)pyrimidin-4(3H)-one]: half-maximal inhibition (IC50) required 396 ± 10.8 µM.

`O=c1[nH]cc([C@@H]2O[C@H](CO)[C@@H](O)[C@H](O)[C@H]2O)c(=O)[nH]1` [compound 4, 5-(β-D-Glucopyranosyl)pyrimidin-2,4-dione]: it took 88.5 ± 4.3 µM to reach half-maximal inhibition (IC50).

(Values after paper PMC7700572, “Synthesis, Kinetic and Conformational Studies of 2-Substituted-5-(β-D-glucopyranosyl)-pyrimidin-4-ones as Potential Inhibitors of Glycogen Phosphorylase” (Molecules, 2020).)
